# Source: patent publication US4977139A, “Aqueous elcatonin solution composition” (Toyo Jozo Company, Ltd., priority 1988, dated 1990)
# Experiment: Severe test against heat (storage at 45° C. for 3 months, residual rate by HPLC)
# Format: physicochemical
# Procedure: In preparation of 0.1 mM sodium acetate pH buffer of pH 5.5 in Example 2, four kinds of solutions were prepared so that concentration of sodium chloride was 3 mM, 10 mM, 154 mM and 500 mM. Elcatonin was dissolved therein so that elcatonin concentration was 7 μg/ml. Each of the compositions was filled in an ampule in the same manner as in Example 1 to prepare elcatonin injections having four kinds of ionic strength. The resulting elcatonin injections were stored at 45° C. for 3 months and residual rate was obtained under the same conditions as in Test Example 1.
substance,measurement,setting,value
1-butyric acid-7-(L-2-aminobutyric acid)-26- o L-aspartic acid-27-L-valine-29-L-alanine-calcitonin (salmon) [Elcatonin],Residual rate (%),"NaCl 3 mM, ionic strength 0.003, 0.1 mM sodium acetate pH 5.5, elcatonin 7 μg/ml",50%
same,Residual rate (%),"NaCl 10 mM, ionic strength 0.010, 0.1 mM sodium acetate pH 5.5, elcatonin 7 μg/ml",79%
same,Residual rate (%),"NaCl 154 mM, ionic strength 0.154, 0.1 mM sodium acetate pH 5.5, elcatonin 7 μg/ml",98%
same,Residual rate (%),"NaCl 500 mM, ionic strength 0.500, 0.1 mM sodium acetate pH 5.5, elcatonin 7 μg/ml",97%
